Measured values reported in paper PMC11988454, “Discovery of synthetic small molecules targeting the central regulator of Salmonella pathogenicity” (Science Advances, 2025).

How the values were obtained:
[1] = system: HeLa cells; test: Cytotoxicity, CellTox Green Cytotoxicity Assay, HeLa; assay type: cell-based; details: exposure time 18 h
Experimental: In vitro toxicity of compound C26 was assessed in HeLa cells (ATCC CCL-2) using the ApoTox-Glo Triplex Assay and in macrophages RAW 264.7-LgBiT using the CellTox Green Cytotoxicity Assay (Promega, USA) according to the manufacturer’s instructions. The screening of in vitro toxicity of the compound analogs was performed with the CellTox Green Cytotoxicity Assay (Promega, USA) according to the manufacturer’s instructions. Cells (10^4 cells per well) were seeded into a 96-well plate and incubated for 24 hours at 37°C, 5% (v/v) CO2. Cells were then treated with the compound at different concentrations or 1% (v/v) DMSO in Dulbecco’s modified Eagle’s medium (DMEM) without phenol red at the desired exposure time. Fluorescence intensity was measured with a TECAN Spark microplate reader. Cytotoxicity [relative fluorescence units (RFU)] and viability (RFU) values were plotted to calculate the TC50 using GraphPad Prism 10.1.1.
Compound concentration (µM) […]
in vitro cytotoxicity of C26 and analogs. Cytotoxicity assessed with CellTox™ Green Cytotoxicity Assay with an exposure time of 18 h. N = 3 biological replicates. Data were plotted and TC50 values were generated with GraphPad Prism 10.1.1.
(1 picture or pasted object on this page, not shown here)

[2] = system: HilD mutants; test: EMSA, binding of HilD mutants to PhilA; assay type: biochemical, S. Typhimurium; details: 600 nM protein
Experimental: (§1) (F) EMSAs showing the binding of 600 nM HilDWT, HilDL45A, HilDY46A, HilDI100A, and HilDY212A to PhilA, upon incubation with the indicated concentrations of C26.
(§2) EMSAs were performed similarly to as described previously ([39]) using a 62–base pair double-stranded (dsDNA) fragment of the hilA promoter, encompassing the A1 binding site ([82]). dsDNA fragments were generated by melting the complementary primers PhilA_A1_f / PhilA_A1_r (table S10) together in TE buffer [10 mM Tris (pH 8.0) and 1 mM EDTA] at 95°C for 10 min before slowly cooling to r.t. The forward primer was modified with a 5′-Cy5 fluorescent dye for detection. The protein (600 nM) was incubated with 50 nM labeled DNA in EMSA buffer [20 mM Tris (pH 8.0), 100 mM KCl, 100 μM EDTA, and 3% glycerol]. C26 was diluted first in DMSO and subsequently 1:100 into the protein-DNA sample. Samples were incubated at 37°C for 15 min, supplemented with diluted DNA loading dye, and separated on a 1.5-mm-thick, 6% (w/v) TBE polyacrylamide gel at 6°C at a constant voltage of 100 V. Gels were imaged using a ChemiDocMP imaging system (Bio-Rad).

[3] = biological target: T1, HilD mutants (Salmonella typhimurium, UniProt P0CL08, I100A); test: EMSA, binding of HilD mutants to PhilA; assay type: biochemical, S. Typhimurium; details: 600 nM protein
T1 construct: His6-SUMO (N, cleaved yes); made in house; host or cells: E. coli C41(DE3)
T1 sequence (P0CL08 whole entry I100A): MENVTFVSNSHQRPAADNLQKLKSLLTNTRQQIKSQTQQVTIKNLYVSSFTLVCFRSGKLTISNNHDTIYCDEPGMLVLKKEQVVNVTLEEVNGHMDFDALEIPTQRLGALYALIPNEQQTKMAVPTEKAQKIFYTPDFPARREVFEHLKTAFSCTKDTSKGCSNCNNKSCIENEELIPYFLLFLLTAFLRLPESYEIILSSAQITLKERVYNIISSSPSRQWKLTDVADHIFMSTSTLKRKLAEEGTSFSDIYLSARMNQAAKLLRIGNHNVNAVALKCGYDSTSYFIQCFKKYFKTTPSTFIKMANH
Experimental: as §1, §2

[4] = system: male ICR mice; test: Maximum tolerated dose (MTD) experiment, oral
Experimental: C26 was formulated in 5% Tween 20 (v/v), 50% lecithin (from soy bean: 40 mg in 800 μl of distilled water), and 45% PBS at 0.6, 2, and 6 mg/ml for oral administration. A dosing volume of 5 ml/kg was applied. C26 was administered orally to groups of three male Institute of Cancer Research (ICR) mice (23 ± 3 g) at an initiating dose of 3 mg/kg in an MTD setup. The animals received an initial dose of 3 mg/kg. If the animals survived for 72 hours, the group (10 mg/kg) was tested. If the animals survived for 72 additional hours, the group (30 mg/kg) was tested. Experiments were performed by Pharmacology Discovery Services Taiwan Ltd., in general accordance with the “Guide for the Care and Use of Laboratory Animals: Eighth Edition” (National Academies Press, Washington, DC, 2011). The animal care and protocol were reviewed and approved by the Institutional Animal Care and Use Committee (IACUC) at Pharmacology Discovery Services Taiwan Ltd.

[5] = biological target: T2, HilD (Salmonella typhimurium, UniProt E1WAC0); test: Whole-cell HilD activity assay (PhilA-sfGFP activation); assay type: cell-based, S. Typhimurium; details: C26 100 μM, strain overexpressing hilD
T2 construct: Strain PhilA-sfGFP and the isogenic ΔhilD PhilA-sfGFP were used for this purpose; endogenous in cells; host or cells: S. Typhimurium SL1344 strain PhilA-sfGFP
T2 sequence (E1WAC0 whole entry): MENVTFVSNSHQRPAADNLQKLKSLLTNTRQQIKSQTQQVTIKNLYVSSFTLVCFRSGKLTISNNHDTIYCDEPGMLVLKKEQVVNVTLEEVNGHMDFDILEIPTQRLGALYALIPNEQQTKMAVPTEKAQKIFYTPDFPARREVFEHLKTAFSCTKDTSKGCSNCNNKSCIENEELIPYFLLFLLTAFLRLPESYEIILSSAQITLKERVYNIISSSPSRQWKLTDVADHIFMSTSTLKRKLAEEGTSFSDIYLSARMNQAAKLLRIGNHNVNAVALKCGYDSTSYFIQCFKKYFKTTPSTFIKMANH

[6] = system: S. Typhimurium SL1344; test: Growth in LB medium (OD at 600 nm); assay type: cell-based; details: C26 at different concentrations
From the text: Experiment performed in a 96-well plate. Growth assessed by measuring the OD at 600 nm (N = 3 biological replicates).

[7] = system: SPI-4 encoded T1SS (SiiE); test: SiiE-HiBiT cell surface retention assay; assay type: cell-based, S. Typhimurium
Experimental: HiBiT was inserted chromosomally into SiiE at position K5411, using the suicide plasmid pMIB8021 (pSB890-siiE::K5411HiBiT). Bacteria were grown for 5 hours under SPI-4–inducing conditions (LB supplemented with 0.3 M NaCl). OD units of 0.5 were harvested at 10,000g for 2 min at 4°C. Cell pellets were washed twice with cold PBS and then resuspended to a final concentration of 0.5 OD units. Twenty-five microliters from the bacterial suspension was transferred into a 384-well plate. The Nano-Glo HiBiT Extracellular Buffer and corresponding substrate were prepared according to the manufacturer’s instructions. Twenty-five microliters of the Nano-Glo HiBiT Extracellular buffer-substrate mix was added to each sample and then incubated at r.t. for 10 min. Luminescence was measured with a Tecan Spark microplate reader.

[8] = system: S. Typhimurium invasion of MDCK cells; test: Invasion assay into MDCK cells; assay type: cell-based; details: C26 100 μM, MOI 5; DMSO control 6.85
Experimental: MDCK (NBL-2) cells were seeded in a 24-well plate at a density of 10^5 cells per well in 1 ml of MEM (Gibco) and grown for 5 to 6 days, to allow polarization. Cells were washed every 2 days with fresh medium. After 5 days, each well contained ~1.8 × 10^6 MDCK cells. Bacteria were grown as for the invasion assay of HeLa cells and diluted to obtain an MOI of 5. The plate was centrifuged for 3 min at 300g to synchronize the infection and then incubated for 25 min at 37°C and 5% (v/v) CO2 to allow Salmonella invasion into MDCK cells. The quantification of invasiveness was carried out as described above for HeLa cells.

[9] = biological target: HilD-HilE heterodimer (Salmonella typhimurium, UniProt P0CL08); test: MST dimerization assay HilD-HilE; assay type: binding, S. Typhimurium; details: 100 μM compound
HilD-HilE heterodimer, sequence (P0CL08 whole entry, one chain of several): as the sequence (E1WAC0 whole entry) above
Experimental: MST measurements for the binding of HilD to HilE were performed as previously described ([39]). In summary, enhanced yellow fluorescent protein (EYFP)-HilD (100 nM) was incubated with 100 μM either oleic acid or C26 [with a final concentration of 1% (v/v) DMSO] for 10 min at r.t. (22° to 25°C) and subsequently mixed 1:1 with varying concentrations of HilE. Samples were incubated together for 10 min at r.t., centrifuged for 5 min, and loaded to standard capillaries (NanoTemper Technologies GmbH, no. MO-K022). MST runs were performed at 25°C on a NanoTemper Monolith NT.115, with an excitation power of 60% and medium MST power. Data were analyzed using the MO.Affinity Analysis v2.3 software, and affinity constants were calculated using the Kd model.

In the case of `CN(CC(=O)NCc1ccc2c(c1)OCO2)Cc1ccc(Br)s1` [C26, N-(benzo[d][1,3]dioxol-5-ylmethyl)-2-{[(5-bromothiophen-2-yl)methyl](methyl)amino}acetamide], the TC50 cytotoxicity [1] is reported as > 100 µM, the “DNA binding ability of HilDL45A, HilDY46A, HilDY212A” value [2] is reported as “did not exert any effect” and the “HilDI100A binding to PhilA” value [3] is reported as “hindered”. The “Toxicity (death / test)” value ([4]; PO 3 mg/kg, 1 h) was 0/3, the “Toxicity (death / test)” value ([4]; PO 3 mg/kg, 2 h) was 0/3 and the “Toxicity (death / test)” value ([4]; PO 3 mg/kg, 24 h) was 0/3. For the same compound, the “Toxicity (death / test)” value ([4]; PO 3 mg/kg, 48 h) was 0/3, the “Toxicity (death / test)” value ([4]; PO 3 mg/kg, 72 h) was 0/3 and the “Toxicity (death / test)” value ([4]; PO 10 mg/kg, 1 h) was 0/3. The “Toxicity (death / test)” value ([4]; PO 10 mg/kg, 2 h) was 0/3, the “Toxicity (death / test)” value ([4]; PO 10 mg/kg, 24 h) was 0/3 and the “Toxicity (death / test)” value ([4]; PO 10 mg/kg, 48 h) was 0/3. For the same compound, the “Toxicity (death / test)” value ([4]; PO 10 mg/kg, 72 h) was 0/3, the “Toxicity (death / test)” value ([4]; PO 30 mg/kg, 1 h) was 0/3 and the “Toxicity (death / test)” value ([4]; PO 30 mg/kg, 2 h) was 0/3. For the same compound, the “Toxicity (death / test)” value ([4]; PO 30 mg/kg, 24 h) was 0/3, the “Toxicity (death / test)” value ([4]; PO 30 mg/kg, 48 h) was 0/3 and the “Toxicity (death / test)” value ([4]; PO 30 mg/kg, 72 h) was 0/3. For the same compound, the abnormalities at termination ([4]; mouse, in vivo) was “no notable abnormalities”, the “Body weight (g) 72 h” value ([4]; mouse, in vivo, po, 3 mg/kg) was 29 g and the “Body weight (g) Pre-dose” value ([4]; mouse, in vivo, po, 10 mg/kg) was 25 g. For the same compound, the “mortality and adverse effects” value ([4]; oral 3, 10 and 30 mg/kg, mice) was “Neither mortality nor notable adverse effects”, the “decrease of PhilA activation” value ([5]; WT background) was 14% and the “decrease of PhilA activation” value ([5]; ΔhilD ΔhilC ΔrtsA background) was 18%. The “growth of S. Typhimurium” value [6] was “did not impair the growth”, the “SiiE-HiBiT retained on the bacterial cell surface” value [7] was “reduced in a dose-dependent manner” and the “Invasion of MDCK cells (%), of the original inoculum” value [8] was 1.6%. The “formation of HilD-HilE heterodimers” value [9] was “no effect on heterodimerization”.
